Laboratory results as given in patent US11384067B2, “Pyrazole n-linked carbamoyl cyclohexyl acids as LPA antagonists” (BRISTOL-MYERS SQUIBB COMPANY, priority 2017, dated 2022).

What was measured:
IPF patients = conditions: 26-week clinical trial; cited from earlier work
human LPA1 = biological target: T1, human LPA1 (Homo sapiens, UniProt Q92633); assay: LPA1 functional antagonist assay (LPA-induced calcium flux); format: cell-based; conditions: CHO cells overexpressing human LPA1, 10 nM LPA, read-out: hLPA1 IC50
T1 construct: expressed in transfected cells; host or cells: Chinese hamster ovary (CHO) cells
Method: The effectiveness of compounds of the present invention as LPA1 inhibitors can be determined in an LPA1 functional antagonist assay as follows:
The cells were then equilibrated to room temperature for 30 minutes before the assay. […] IC50 values were determined by fitting data to a 4-parameter logistic equation (GraphPad Prism, San Diego Calif.).

nerve-injured mice = conditions: pretreatment; cited from earlier work
[1] = system: human foetal lung fibroblasts; conditions: cited from earlier work
UUO mice = conditions: compared with LPA1 (-/-) mice; cited from earlier work
[2] = system: mouse epithelial renal cell line, MCT; conditions: co-treatment with LPA, MCT cells; cited from earlier work
[3] = system: pancreatic cancer cell lines; conditions: cited from earlier work

T1 sequence (Q92633 whole entry): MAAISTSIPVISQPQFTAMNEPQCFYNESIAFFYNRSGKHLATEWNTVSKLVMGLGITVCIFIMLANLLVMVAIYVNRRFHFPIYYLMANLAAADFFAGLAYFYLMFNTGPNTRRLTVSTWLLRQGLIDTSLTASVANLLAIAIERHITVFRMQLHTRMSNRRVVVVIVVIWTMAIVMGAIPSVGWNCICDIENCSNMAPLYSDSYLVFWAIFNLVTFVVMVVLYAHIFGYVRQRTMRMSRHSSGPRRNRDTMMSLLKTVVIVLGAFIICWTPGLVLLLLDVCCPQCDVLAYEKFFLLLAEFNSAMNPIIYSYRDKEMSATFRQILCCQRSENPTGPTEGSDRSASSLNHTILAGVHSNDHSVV

Compound | IC50 (human LPA1) | further results
Cc1noc(-c2ccc(-c3ccc(C4(C(=O)O)CC4)cc3)cc2)c1NC(=O)O[C@H](C)c1ccccc1 [BMS-986020] | – | rate of FVC (forced vital capacity) decline (IPF patients): significantly reduce
Cc1nc(-c2cnn(C)c2CNC(=O)OCc2ccccc2)ccc1O[C@H]1CCC[C@H](C(=O)O)C1 [Example 33, (1S,3S)-3-((6-(5-((((benzyloxy)carbonyl)amino)methyl)-1-methyl-1H-pyrazol-4-yl)-2-methylpyridin-3-yl)oxy)cyclohexane-1-carboxylic acid] | 13 nM | –
CC[C@H](C)COC(=O)NCc1c(-c2ccc(O[C@H]3CCC[C@H](C(=O)O)C3)c(C)n2)cnn1C [Example 34, (1S,3S)-3-((2-methyl-6-(1-methyl-5-(((((S)-2-methylbutoxy)carbonyl)amino)methyl)-1H-pyrazol-4-yl)pyridin-3-yl)oxy)cyclohexane-1-carboxylic acid] | 20 nM | –
Cc1nc(-c2cnn(C)c2CNC(=O)OCC2CCC2)ccc1O[C@H]1CCC[C@H](C(=O)O)C1 [Example 35, (1S,3S)-3-((6-(5-((((cyclobutyl-methoxy)carbonyl)amino)methyl)-1-methyl-1H-pyrazol-4-yl)-2-methyl-pyridin-3-yl)oxy)cyclohexane-carboxylic acid] | 10 nM | –
CC[C@H](C)COC(=O)NCc1c(-c2ncc(O[C@H]3CCC[C@H](C(=O)O)C3)c(C)n2)cnn1C [Example 36, (1S,3S)-3-((4-methyl-2-(I-methyl-5-(((((S)-2-methylbutoxy)carbonyl)amino)methyl)-1H-pyrazol-4-yl)pyrimidin-5-yl)oxy)cyclohexane-1-carboxylic Acid] | 31 nM | –
Cc1nc(-c2cnn(C)c2CNC(=O)OCc2ccccc2)ncc1O[C@H]1CCC[C@H](C(=O)O)C1 [Example 37, (1S,3S)-3-((2-(5-((((benzyloxy)carbonyl)amino)methyl)-1-methyl-1H-pyrazol-4-yl)-4-methylpyrimidin-5-yl)oxy)cyclohexane-1-carboxylic Acid] | 16 nM | –
Cc1nc(-c2cnn(C)c2CNC(=O)OCC(C)C)ncc1O[C@H]1CCC[C@H](C(=O)O)C1 [Example 38, (1S,3S)-3-((2-(5-(((isobutoxy-carbonyl)amino)methyl)-1-methyl-1H-pyrazol-4-yl)-4-methylpyrimidin-5-yl)oxy)cyclohexane-1-carboxylic acid] | 218 nM | –
Cc1nc(-c2cnn(C)c2NC(=O)OC(C)(C)C)ncc1O[C@H]1CCC[C@H](C(=O)O)C1 [Example 39, (1S,3S)-3-((2-(5-((tert-butoxycarbonyl)amino)-1-methyl-1H-pyrazol-4-yl)-4-methylpyrimidin-5-yl)oxy)cyclohexane-1-carboxylic Acid] | 1520 nM | –
Cc1nc(-c2cnn(C)c2NC(=O)O[C@H](C)c2ccccc2)ncc1O[C@H]1CCC[C@H](C(=O)O)C1 [Example 40, (1S,3S)-3-((4-methyl-2-(1-methyl-5-((((R)-1-phenylethoxy)carbonyl)amino)-1H-pyrazol-4-yl)pyrimidin-5-yl)oxy)cyclohexane-1-carboxylic acid] | 105 nM | –
Cc1nc(-c2cnn(C)c2NC(=O)O[C@H](C)C2CC2)ncc1O[C@H]1CCC[C@H](C(=O)O)C1 [Example 41, (1S,3S)-3-((2-(5-((((R)-1-cyclopropyl-ethoxy)carbonyl)amino)-1-methyl-1H-pyrazol-4-yl)-4-methylpyrimidin-5-yl)oxy)cyclohexane-1-carboxylic acid] | 80 nM | –
CCCCOC(=O)Nc1c(-c2ncc(O[C@H]3CCC[C@H](C(=O)O)C3)c(C)n2)cnn1C [Example 42, (1S,3S)-3-((2-(5-((butoxycarbonyl)amino)-1-methyl-1H-pyrazol-4-yl)-4-methylpyrimidin-5-yl)oxy)cyclohexane-1-carboxylic acid] | 239 nM | –
Cc1nc(-c2cnn(C)c2NC(=O)OCC(C)C)ncc1O[C@H]1CCC[C@H](C(=O)O)C1 [Example 43] | 564 nM | –
Cc1nc(-c2cnn(C)c2NC(=O)OCC2CC2)ncc1O[C@H]1CCC[C@H](C(=O)O)C1 [Example 44, (1S,3S)-3-((2-(5-(((cyclopropyl-methoxy)carbonyl)amino)-1-methyl-1H-pyrazol-4-yl)-4-methylpyrimidin-5-yl)oxy)cyclohexane-1-carboxylic acid] | 995 nM | –
C[C@@H](N)[C@H]1CC[C@H](C(=O)Nc2ccncc2)CC1 [Example Y-27632] | – | allodynia and hyperalgesia (nerve-injured mice): completely abolished
Cc1noc(-c2ccc(CSCCC(=O)O)cc2)c1NC(=O)OC(C)c1ccccc1Cl (centres unmarked) [Ki16425] | – | chemotaxis of human foetal lung fibroblasts induced by BAL from IPF patients [1]: blocked; fibroblast chemotactic activity in bronchoalveolar lavage samples of IPF subjects [1]: inhibited; development of renal fibrosis in UUO mice (UUO mice): closely resembled the profile of LPA1 (−/−) mice; LPA induction of CTGF expression [2]: almost completely suppressed; in vitro migration in response to LPA and ascites from pancreatic cancer patients [3]: effectively blocked; LPA-induced and ascites-induced invasion activity ([3]; highly peritoneal metastatic pancreatic cancer cell line): blocked
